For 28 compounds, IC50 results are on record in patent publication US8450317B2, “CXCR3 receptor antagonists” (Boehringer Ingelheim International GmbH, priority 2009, dated 2013).

The assay deals with CXCR3 (Macaca fascicularis, UniProt A0A2K5UV19). The assay is described as follows: functional cellular assay measuring calcium flux in CXCR3 transfected cells (block of CXCR3/IP-10 interaction). The assay is classed as cell-based, Cyno. The conditions noted are these: IP-10 induced intracellular calcium flux; Cyno-CHO cells stably expressing recombinant CXCR3 and G-alpha-16; IP-10 at EC80; read-out: IC50. The protocol: Compounds are assessed for the ability to block the interaction of CXCR3 and IP-10 in a functional cellular assay measuring calcium flux in CXCR3 transfected cells.
CXCR3, sequence (A0A2K5UV19 entry or part of it): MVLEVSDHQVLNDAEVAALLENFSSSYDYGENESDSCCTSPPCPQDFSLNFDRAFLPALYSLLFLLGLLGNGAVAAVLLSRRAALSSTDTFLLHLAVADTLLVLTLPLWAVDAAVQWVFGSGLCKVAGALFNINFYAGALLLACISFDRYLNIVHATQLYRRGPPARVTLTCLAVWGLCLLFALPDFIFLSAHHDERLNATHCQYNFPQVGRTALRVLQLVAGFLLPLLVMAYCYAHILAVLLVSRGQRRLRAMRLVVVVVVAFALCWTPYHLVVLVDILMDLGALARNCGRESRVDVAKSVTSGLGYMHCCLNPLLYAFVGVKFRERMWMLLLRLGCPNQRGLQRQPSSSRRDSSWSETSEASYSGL
Cyno-CHO cells, stably expressing recombinant CXCR3 and G-alpha-16 are grown in F12 medium (Mediatech #45000-360) supplemented with 10% (V/V) FBS (Mediatech #35-01500), 1% Geneticin (Invitrogen #10131-027) and 0.2% Zeocin (Invitrogen #R250-05). The cells are spun down and re-suspended in growth media to a concentration of […]. 25 microL of cell suspension is added to each well of a BD-384-well TC treated plate, providing 12,000 cells/well. The plate is incubated at 37° C./5% CO2 overnight. On the day of the assay, the plates are removed, the media is flicked out and 25 microL of Ca-4 dye in assay buffer (HBSS, 10 mM HEPES ph 7.4), containing 2 mM probenacid is added to each well. The cell assay plates are then incubated at 37° C./5% CO2 for one hour.
Test compounds are dissolved in DMSO and diluted to 1.045 mM in DMSO. Just prior to assay, 2.75 microL of appropriately diluted test compound are added to each well of a 384 well plate containing 45 microL of HBSS buffer. After mixing, 5 microL of diluted compound are added to each well of the cell assay plate for a final assay concentration of 10 microM. The plate is incubated at room temperature for 15 min. 10 microL of IP-10 stock solution in HBSS (4× EC80 concentration) are added to each well of the cell assay plate except those cells reserved as blank wells containing buffer only. Intracellular calcium flux is recorded on the HAMAMTSU FDSS6000, using excitation at 480 nm and emission at 540 nm. Data are analyzed using Activity Base software.
In general, the preferred potency range (IC50) of compounds in the above assay is between 1 nM to 3 μM, and the most preferred potency range is 1 nM to 200 nM.
On the technique in general: Calcium flux is commonly read through the fluorescence of an indicator in the cells.
As to `COc1cccc(-c2ccccc2N2CCN(C(=O)Cn3nc(C)cc3C)CC2)c1` [2-(3,5-Dimethyl-pyrazol-1-yl)-1-[4-(3′-methoxy-biphenyl-2-yl)-piperazin-1-yl]-ethanone], the IC50 is 56 nM. Turning to `COc1cc(NC(=O)c2cc(F)ccc2N2CCN(C(=O)CN3Cc4ccccc4C3=O)[C@@H](C)C2)ccn1` [5-fluoro-N-(2-methoxypyridin-4-yl)-2-{(3S)-3-methyl-4-[(1-oxo-1,3-dihydro-2H-isoindol-2-yl)acetyl]piperazin-1-yl}benzamide], the IC50 came to 13 nM. As to `COc1ncc(-c2ccccc2N2CCN(C(=O)Cn3c(=O)n(C)c4ccccc43)CC2)cn1` [1-(2-{4-[2-(2-Methoxy-pyrimidin-5-yl)-phenyl]-piperazin-1-yl}-2-oxo-ethyl)-3-methyl-1,3-dihydro-benzoimidazol-2-one], the half-inhibitory concentration (IC50) is 11 nM. In the case of `C[C@@H]1CN(c2ccc(F)cc2C(=O)Nc2nc3c(s2)CN(C)CC3)CCN1C(=O)CN1CCCCC1=O` [5-fluoro-2-{(3R)-3-methyl-4-[(2-oxopiperidin-1-yl)acetyl]piperazin-1-yl}-N-(5-methyl-4,5,6,7-tetrahydro[1,3]thiazolo[5,4-c]pyridin-2-yl)benzamide] it was 20 nM; in that of `COc1ncc(-c2ccccc2N2CCN(C(=O)Cn3nc(C)cc3C)CC2)cn1` [2-(3,5-Dimethyl-pyrazol-1-yl)-1-{4-[2-(2-methoxy-pyrimidin-5-yl)-phenyl]-piperazin-1-yl}-ethanone], 46 nM. In the case of `Cc1cc(C)n(CC(=O)N2CCN(c3ccccc3-c3cnc(N4CCC(C(N)=O)CC4)nc3)CC2)n1` [1-[5-(2-{4-[2-(3,5-Dimethyl-pyrazol-1-yl)-acetyl]-piperazin-1-yl}-phenyl)-pyrimidin-2-yl]-piperidine-4-carboxylic acid amide] it was 6 nM. In the case of `Cc1cc(C)n(CC(=O)N2CCN(c3ccc(C(F)(F)F)cc3-c3cnc(S(C)(=O)=O)nc3)CC2C)n1` (stereo not shown) [2-(3,5-dimethyl-1H-pyrazol-1-yl)-1-(2-methyl-4-{2-[2-(methylsulfonyl)pyrimidin-5-yl]-4-(trifluoromethyl)phenyl}piperazin-1-yl)ethanone] it was 56 nM; in that of `C[C@@H]1CN(c2ccc(F)cc2C(=O)Nc2nc3c(s2)CN(C)CC3)CCN1C(=O)Cn1c(=O)[nH]c2ccccc21` [5-fluoro-2-{(3R)-3-methyl-4-[(2-oxo-2,3-dihydro-1H-benzimidazol-1-yl)acetyl]piperazin-1-yl}-N-(5-methyl-4,5,6,7-tetrahydro[1,3]thiazolo[5,4-c]pyridin-2-yl)benzamide], 18 nM. As for `COc1cc(NC(=O)c2cc(F)ccc2N2CCN(C(=O)Cn3c(=O)[nH]c4ccccc43)[C@H](C)C2)ccn1` [5-fluoro-N-(2-methoxypyridin-4-yl)-2-{(3R)-3-methyl-4-[(2-oxo-2,3-dihydro-1H-benzimidazol-1-yl)acetyl]piperazin-1-yl}benzamide], the IC50 was found to be 8 nM. For `Cc1cc(C)n(CC(=O)N2CCN(c3ccccc3-c3cnc(Oc4ccccc4)nc3)CC2)n1` [2-(3,5-Dimethyl-pyrazol-1-yl)-1-{4-[2-(2-phenoxy-pyrimidin-5-yl)-phenyl]-piperazin-1-yl}-ethanone] the value was 39 nM.

Consider `COc1ncc(-c2cc(F)ccc2N2CCN(C(=O)Cn3c(=O)[nH]c4ccccc43)CC2)cn1` [1-(2-{4-[4-fluoro-2-(2-methoxypyrimidin-5-yl)phenyl]piperazin-1-yl}-2-oxoethyl)-1,3-dihydro-2H-benzimidazol-2-one], for which the IC50 turned out to be 13 nM.

Regarding `CN1CCN(c2ncc(-c3cc(F)ccc3N3CCN(C(=O)Cn4c(=O)[nH]c5ccccc54)CC3)cn2)CC1` [1-[2-(4-{4-fluoro-2-[2-(4-methylpiperazin-1-yl)pyrimidin-5-yl]phenyl}piperazin-1-yl)-2-oxoethyl]-1,3-dihydro-2H-benzimidazol-2-one], the IC50 amounted to 14 nM. In the case of `O=C(Cn1ccc2cccnc21)N1CCN(c2ccc(F)cc2-c2cnc(N3CCCC3)nc2)CC1` [1-(4-{4-fluoro-2-[2-(pyrrolidin-1-yl)pyrimidin-5-yl]phenyl}piperazin-1-yl)-2-(1H-pyrrolo[2,3-b]pyridin-1-yl)ethanone] it was 15 nM. For `COc1cc(-c2ccccc2N2CCN(C(=O)Cn3ccc4cccnc43)CC2)ccn1` [1-{4-[2-(2-Methoxy-pyridin-4-yl)-phenyl]-piperazin-1-yl}-2-pyrrolo[2,3-b]pyridin-1-yl-ethanone], the IC50 worked out at 24 nM. `Cc1cc(C)n(CC(=O)N2CCN(c3ccc(F)cc3-c3cnc(N4CCC(O)CC4)nc3)CC2)n1` [2-(3,5-dimethyl-1H-pyrazol-1-yl)-1-(4-{4-fluoro-2-[2-(4-hydroxypiperidin-1-yl)pyrimidin-5-yl]phenyl}piperazin-1-yl)ethanone]: the 50% inhibitory concentration (IC50) was determined as 9 nM. For `CN(C)c1ncc(-c2ccccc2N2CCN(C(=O)Cn3ccc4cccnc43)CC2)cn1` [1-{4-[2-(2-Dimethylamino-pyrimidin-5-yl)-phenyl]-piperazin-1-yl}-2-pyrrolo[2,3-b]pyridin-1-yl-ethanone] the value was 6 nM; for `Cc1cc(C)n(CC(=O)N2CCN(c3ccccc3-c3cnc(N4CCC(O)CC4)nc3)CC2)n1` [2-(3,5-Dimethyl-pyrazol-1-yl)-1-(4-{2-[2-(4-hydroxy-piperidin-1-yl)-pyrimidin-5-yl]-phenyl}-piperazin-1-yl)-ethanone], 7 nM; for `O=C(Cn1c(=O)[nH]c2ccccc21)N1CCN(c2ccc(F)cc2-c2cnc(N3CCCC3)nc2)CC1` [1-[2-(4-{4-fluoro-2-[2-(pyrrolidin-1-yl)pyrimidin-5-yl]phenyl}piperazin-1-yl)-2-oxoethyl]-1,3-dihydro-2H-benzimidazol-2-one], 14 nM.

For the compound `Cc1cc(C)n(CC(=O)N2CCN(c3ccccc3-c3cnc(N4CCC(S(C)(=O)=O)CC4)nc3)CC2)n1` [2-(3,5-Dimethyl-pyrazol-1-yl)-1-(4-{2-[2-(4-methanesulfonyl-piperidin-1-yl)-pyrimidin-5-yl]-phenyl}-piperazin-1-yl)-ethanone], the IC50 turned out to be 6 nM. `COc1ncc(-c2ccccc2N2CCN(C(=O)Cn3nc(C)c(Cl)c3C)CC2)cn1` [2-(4-Chloro-3,5-dimethyl-pyrazol-1-yl)-1-{4-[2-(2-methoxy-pyrimidin-5-yl)-phenyl]-piperazin-1-yl}-ethanone]: the IC50 was determined as 10 nM. Regarding `O=C(Cn1ccc2cccnc21)N1CCN(c2ccccc2-c2ccnc(N3CCOCC3)c2)CC1` [1-{4-[2-(2-Morpholin-4-yl-pyridin-4-yl)-phenyl]-piperazin-1-yl}-2-pyrrolo[2,3-b]pyridin-1-yl-ethanone], the 50% inhibitory concentration (IC50) was found to be 16 nM. With `COc1cc(NC(=O)c2cc(F)ccc2N2CCN(C(=O)CN3CCCCC3=O)[C@H](C)C2)ccn1` [5-fluoro-N-(2-methoxypyridin-4-yl)-2-{(3R)-3-methyl-4-[(2-oxopiperidin-1-yl)acetyl]piperazin-1-yl}benzamide], the 50% inhibitory concentration (IC50) worked out at 10 nM. In the case of `N#Cc1ncc(-c2ccccc2N2CCN(C(=O)Cn3ccc4cccnc43)CC2)cn1` [5-{2-[4-(2-Pyrrolo[2,3-b]pyridin-1-yl-acetyl)-piperazin-1-yl]-phenyl}-pyrimidine-2-carbonitrile] it was 13 nM; in that of `CC1CN(c2ccc(F)cc2-c2cnc(S(C)(=O)=O)nc2)CCN1C(=O)CN1Cc2ccccc2C1=O` (stereo not shown) [2-[2-(4-{4-fluoro-2-[2-(methylsulfonyl)pyrimidin-5-yl]phenyl}-2-methylpiperazin-1-yl)-2-oxoethyl]-2,3-dihydro-1H-isoindol-1-one], 245 nM; in that of `Cc1cc(C)n(CC(=O)N2CCN(c3ccccc3-c3cnc(N4CCC(O)C4)nc3)CC2)n1` (stereo not shown) [2-(3,5-Dimethyl-pyrazol-1-yl)-1-(4-{2-[2-(3-hydroxy-pyrrolidin-1-yl)-pyrimidin-5-yl]-phenyl}-piperazin-1-yl)-ethanone], 9 nM. With `CN1CCN(c2ncc(-c3ccccc3N3CCN(C(=O)Cn4ccc5cccnc54)CC3)cn2)CC1` [1-(4-{2-[2-(4-Methyl-piperazin-1-yl)-pyrimidin-5-yl]-phenyl}-piperazin-1-yl)-2-pyrrolo[2,3-b]pyridin-1-yl-ethanone], the IC50 was 11 nM. Turning to `O=C(Cn1cnc2cccnc21)N1CCN(c2ccc(F)cc2-c2cnc(N3CCOCC3)nc2)CC1` [1-(4-{4-fluoro-2-[2-(morpholin-4-yl)pyrimidin-5-yl]phenyl}piperazin-1-yl)-2-(3H-imidazo[4,5-b]pyridin-3-yl)ethanone], the IC50 is 24 nM. For `CN1CCN(c2ncc(-c3cc(F)ccc3N3CCN(C(=O)Cn4ccc5cccnc54)CC3)cn2)CC1` [1-(4-{4-fluoro-2-[2-(4-methylpiperazin-1-yl)pyrimidin-5-yl]phenyl}piperazin-1-yl)-2-(1H-pyrrolo[2,3-b]pyridin-1-yl)ethanone] the value was 20 nM.

A word on the IC50: it is the concentration needed to halve the response being measured.
